Test results published in ChEMBL document CHEMBL5053549, “Discovery of Potent and Novel Dual PARP/BRD4 Inhibitors for Efficient Treatment of Pancreatic Cancer” (J Med Chem, 2021).
The source made the active and inactive calls. The rule behind the calls is not given here.

What was measured:
[1] = target: Serine/threonine-protein kinase PLK1 (Homo sapiens, UniProt P53350); assay: Inhibition of recombinant PLK1 (unknown origin) […] measured after 40 mins by ADP-glo luminescence kinase assay
Mus musculus [2] = assay: Toxicity in BALB/c mouse xenografted with human SW1990 cells assessed as lung damage at 45 mg/kg, ip administered for 28 consecutive days by H and E staining based […] microscopic analysis; format: organism-based; conditions: in vivo, 672 h, time 28 day
SW1990 [3] = assay: Inhibition of homologous recombinant repair in human SW1990 cells assessed as reduction in BRCA1 expression at 1 to 2 uM after 4 days by Western blot analysis; format: functional, cell-based; conditions: dose 1-2 µM, time 4.0 day
Mus musculus [4] = assay: Effect on cell cycle progression in human SW1990 cells xenografted in BALB/c mouse assessed as reduction in PLK1 expression at 45 mg/kg, ip after 4 days by Western blot analysis; format: functional, organism-based; conditions: time 4.0 day
[5] = target: Poly [ADP-ribose] polymerase 1 (Homo sapiens, UniProt P09874); assay: Inhibition of PARP1 expression in human SW1990 cells at 1 uM after 4 days by Q-PCR analysis; format: cell-based; conditions: time 4.0 day
Poly [ADP-ribose] polymerase 1, sequence (P09874 whole entry): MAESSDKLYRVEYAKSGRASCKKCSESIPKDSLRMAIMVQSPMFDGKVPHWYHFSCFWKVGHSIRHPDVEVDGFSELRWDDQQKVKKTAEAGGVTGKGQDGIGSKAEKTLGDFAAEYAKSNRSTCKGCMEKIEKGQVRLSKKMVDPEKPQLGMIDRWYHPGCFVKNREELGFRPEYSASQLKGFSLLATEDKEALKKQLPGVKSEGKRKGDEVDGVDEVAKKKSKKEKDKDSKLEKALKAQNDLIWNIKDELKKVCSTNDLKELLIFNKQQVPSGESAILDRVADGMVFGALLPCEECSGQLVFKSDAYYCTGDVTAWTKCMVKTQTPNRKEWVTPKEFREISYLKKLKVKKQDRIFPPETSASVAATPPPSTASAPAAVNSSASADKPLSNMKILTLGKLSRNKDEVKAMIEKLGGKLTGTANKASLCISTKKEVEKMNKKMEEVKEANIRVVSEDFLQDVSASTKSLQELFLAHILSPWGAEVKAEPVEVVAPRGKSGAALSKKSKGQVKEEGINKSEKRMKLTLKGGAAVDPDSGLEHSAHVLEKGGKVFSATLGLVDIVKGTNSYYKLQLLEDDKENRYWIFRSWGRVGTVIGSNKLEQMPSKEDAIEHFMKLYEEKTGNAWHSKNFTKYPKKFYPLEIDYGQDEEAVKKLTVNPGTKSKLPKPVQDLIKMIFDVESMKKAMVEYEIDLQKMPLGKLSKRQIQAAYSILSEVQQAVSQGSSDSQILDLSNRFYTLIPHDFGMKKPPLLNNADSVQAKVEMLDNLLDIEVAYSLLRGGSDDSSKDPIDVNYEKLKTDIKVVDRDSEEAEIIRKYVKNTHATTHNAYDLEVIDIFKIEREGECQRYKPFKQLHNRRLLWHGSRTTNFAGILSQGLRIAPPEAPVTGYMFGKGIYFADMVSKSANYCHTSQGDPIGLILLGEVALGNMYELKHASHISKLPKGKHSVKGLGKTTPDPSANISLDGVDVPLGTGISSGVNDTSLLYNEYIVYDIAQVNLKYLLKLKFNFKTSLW

SW1990 [6] = assay: Induction of cell cycle arrest in human SW1990 cells assessed as accumulation of cells at G2/M phase at 1 uM incubated for 4 days by propidium iodide staining based flow cytometry (reference value: 5.89%); format: functional; conditions: time 4 day
[7] = target: Bromodomain-containing protein 4 (Homo sapiens, UniProt O60885); assay: Inhibition of recombinant BRD4 (unknown origin) at 1 uM incubated for 120 mins by TR-FRET assay relative to control
Mus musculus [8] = assay: Inhibition of homologous recombinant repair in human SW1990 cells xenografted in BALB/c mouse assessed as reduction in olaparib-induced Rad51 expression at 15 mg/kg, ip after 4 days by immunohistochemical analysis; format: functional, organism-based; conditions: time 4.0 day
Mus musculus [9] = assay: In vivo inhibition of BRD4 expression in human […] cells xenografted in BALB/c mouse at 45 mg/kg, ip administered for 28 consecutive days by Western blot analysis; format: functional, organism-based; conditions: time 28.0 day
SW1990 [10] = assay: Induction of autophagy in human SW1990 cells xenografted in BALB/c mouse assessed as increase in ATG5 expression at 45 mg/kg, ip after 4 days by Q-PCR analysis; format: functional, organism-based; conditions: time 4.0 day
SW1990 [11] = assay: Inhibition of homologous recombinant repair in human SW1990 cells assessed as reduction in Rad51 expression at 1 to 2 uM after 4 days by Western blot analysis; format: functional, cell-based; conditions: dose 1-2 µM, time 4.0 day
Mus musculus [12] = assay: Effect on cell cycle progression in human SW1990 cells xenografted in BALB/c mouse assessed as reduction in CDK6 expression at 45 mg/kg, ip after 4 days by Western blot analysis; format: functional, organism-based; conditions: time 4.0 day
Mus musculus [13] = assay: In vivo inhibition of BRD4 expression in human […] cells xenografted in BALB/c mouse at 45 mg/kg, ip administered for 28 consecutive days by immunohistochemical analysis; format: functional, organism-based; conditions: time 28.0 day
Mus musculus [14] = assay: In vivo inhibition of PARP1 expression in human […] cells xenografted in BALB/c mouse at 45 mg/kg, ip administered for 28 consecutive days by Q-PCR analysis; format: functional, organism-based; conditions: time 28.0 day
[15] = target: Bromodomain testis-specific protein (Homo sapiens, UniProt Q58F21); assay: Inhibition of recombinant BRDT BD2 (unknown origin) incubated for 120 mins by TR-FRET assay
Mus musculus [16] = assay: Toxicity in BALB/c mouse xenografted with human SW1990 cells assessed as kidney damage at 45 mg/kg, ip administered for 28 consecutive days by H and E staining based […] microscopic analysis; format: organism-based; conditions: in vivo, 672 h, time 28 day
Mus musculus [17] = assay: Effect on cell cycle progression in human SW1990 cells xenografted in BALB/c mouse assessed as reduction in CCND1 expression at 45 mg/kg, ip after 4 days by Q-PCR analysis; format: functional, organism-based; conditions: time 4.0 day
SW1990 [18] = assay: Antitumor activity against human SW1990 cells xenografted in BALB/c mouse assessed as inhibition of tumor growth at 45 mg/kg, ip administered for 28 consecutive days and measured every 3 days by vernier caliper method; format: functional, organism-based; conditions: time 28.0 day
[19] = target: Bromodomain-containing protein 2 (Homo sapiens, UniProt P25440); assay: Inhibition of recombinant BRD2 BD1 (unknown origin) incubated for 120 mins by TR-FRET assay
Bromodomain-containing protein 2, sequence (P25440 whole entry): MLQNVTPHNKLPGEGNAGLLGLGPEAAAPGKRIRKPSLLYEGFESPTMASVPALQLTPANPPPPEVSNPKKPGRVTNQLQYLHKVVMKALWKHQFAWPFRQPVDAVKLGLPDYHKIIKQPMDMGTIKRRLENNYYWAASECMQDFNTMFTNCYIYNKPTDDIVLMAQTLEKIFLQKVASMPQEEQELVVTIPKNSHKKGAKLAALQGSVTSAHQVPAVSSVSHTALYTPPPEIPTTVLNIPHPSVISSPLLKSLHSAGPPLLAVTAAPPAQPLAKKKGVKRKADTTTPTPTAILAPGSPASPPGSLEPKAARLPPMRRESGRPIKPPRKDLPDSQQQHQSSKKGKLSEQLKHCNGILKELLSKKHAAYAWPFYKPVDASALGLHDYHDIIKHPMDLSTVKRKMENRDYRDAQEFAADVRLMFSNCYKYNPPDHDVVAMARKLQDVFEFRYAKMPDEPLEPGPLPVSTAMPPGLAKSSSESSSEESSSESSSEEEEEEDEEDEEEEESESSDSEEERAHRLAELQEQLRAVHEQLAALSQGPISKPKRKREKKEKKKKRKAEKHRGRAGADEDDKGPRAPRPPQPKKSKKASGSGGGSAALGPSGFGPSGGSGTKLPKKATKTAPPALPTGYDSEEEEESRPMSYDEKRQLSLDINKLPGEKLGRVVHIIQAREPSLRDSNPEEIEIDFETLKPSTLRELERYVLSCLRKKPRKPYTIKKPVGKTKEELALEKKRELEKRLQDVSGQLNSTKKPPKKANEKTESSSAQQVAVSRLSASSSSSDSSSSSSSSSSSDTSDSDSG

SW1990 [20] = assay: Antitumor activity against human SW1990 cells xenografted in BALB/c mouse assessed as inhibition of Ki67 expression at 45 mg/kg, ip administered for 28 consecutive days by immunohistochemical analysis; format: functional, organism-based; conditions: time 28.0 day
SW1990 [21] = assay: Induction of autophagy in human SW1990 cells xenografted in BALB/c mouse assessed as decrease in p62 expression at 45 mg/kg, ip after 4 days by Western blot analysis; format: functional, organism-based; conditions: time 4.0 day
SW1990 [22] = assay: Induction of apoptosis in human SW1990 cells assessed as necrotic cells at 1 uM after 4 days by Annexin V-FITC and propidium iodide staining based flow cytometry (reference value: 1.89%); format: functional; conditions: time 4 day
SW1990 [23] = assay: Effect on cell cycle progression in human SW1990 cells assessed as reduction in PLK1 expression at 1 to 2 uM after 4 days by Q-PCR analysis; format: functional, cell-based; conditions: dose 1-2 µM, time 4.0 day
Mus musculus [24] = assay: Effect on cell cycle progression in human SW1990 cells xenografted in BALB/c mouse assessed as reduction in E2F2 expression at 45 mg/kg, ip after 4 days by Western blot analysis; format: functional, organism-based; conditions: time 4.0 day
SW1990 [25] = assay: Induction of DNA damage in human SW1990 cells assessed as tail DNA at 1 uM incubated for 4 days in presence of 3 uM Olaparib by comet assay; format: functional, cell-based; conditions: time 4.0 day
Mus musculus [26] = assay: Toxicity in BALB/c mouse xenografted with human SW1990 cells assessed as kidney damage at 15 mg/kg, ip administered for 28 consecutive days in presence of 45 mg/kg Olaparib; format: organism-based; conditions: in vivo, 672 h, time 28 day
SW1990 [27] = assay: Effect on cell cycle progression in human SW1990 cells assessed as reduction in Olaparib-induced CCND1 expression at 1 uM after 4 days in presence of Olaparib by Q-PCR analysis; format: functional, cell-based; conditions: time 4.0 day
SW1990 [28] = assay: Effect on cell cycle progression in human SW1990 cells assessed as reduction in Olaparib-induced CDK6 expression at 1 uM after 4 days in presence of Olaparib by Western blot analysis; format: functional, cell-based; conditions: time 4.0 day
SW1990 [29] = assay: Inhibition of homologous recombinant repair in human SW1990 cells assessed as reduction in FOXM1 expression at 4 uM after 4 days by Western blot analysis; format: functional, cell-based; conditions: time 4.0 day
SW1990 [30] = assay: Effect on cell cycle progression in human SW1990 cells assessed as reduction in Olaparib-induced CCND1 expression at 1 uM after 4 days in presence of Olaparib by Western blot analysis; format: functional, cell-based; conditions: time 4.0 day
Mus musculus [31] = assay: In vivo inhibition of BRD4 expression in human SW1900 cells xenografted in BALB/c mouse assessed as reversal of Olaparib-induced BRD4 accumulation at 15 mg/kg, ip administered for 28 consecutive days in presence of 45 mg/kg Olaparib by Q-PCR analysis; format: functional, organism-based; conditions: time 28.0 day
SW1990 [32] = assay: Inhibition of homologous recombinant repair in human SW1990 cells assessed as reduction in c-Myc expression at 4 uM after 4 days by Western blot analysis; format: functional, cell-based; conditions: time 4.0 day
SW1990 [33] = assay: Induction of cell cycle arrest in human SW1990 cells assessed as accumulation of cells at S phase at 1 uM incubated for 4 days in presence of 3 uM Olaparib by propidium iodide staining based flow cytometry (reference value: 29.32%); format: functional; conditions: time 4 day

Serine/threonine-protein kinase PLK1, sequence (P53350 whole entry): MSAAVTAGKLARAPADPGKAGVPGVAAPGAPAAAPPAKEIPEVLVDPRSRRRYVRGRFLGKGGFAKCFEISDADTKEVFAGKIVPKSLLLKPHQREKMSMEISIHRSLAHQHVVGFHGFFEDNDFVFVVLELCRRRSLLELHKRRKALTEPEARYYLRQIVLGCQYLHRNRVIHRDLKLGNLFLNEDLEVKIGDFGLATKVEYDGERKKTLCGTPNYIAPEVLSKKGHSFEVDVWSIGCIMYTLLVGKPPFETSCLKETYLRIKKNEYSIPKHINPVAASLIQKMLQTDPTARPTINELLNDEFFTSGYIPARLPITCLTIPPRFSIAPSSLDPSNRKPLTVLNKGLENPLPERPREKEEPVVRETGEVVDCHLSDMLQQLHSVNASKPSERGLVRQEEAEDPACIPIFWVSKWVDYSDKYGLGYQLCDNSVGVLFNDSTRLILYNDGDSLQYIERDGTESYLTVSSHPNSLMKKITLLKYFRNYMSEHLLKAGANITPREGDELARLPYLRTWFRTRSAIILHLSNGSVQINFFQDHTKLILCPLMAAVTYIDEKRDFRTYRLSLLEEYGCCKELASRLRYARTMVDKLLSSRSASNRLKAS

CC[C@@H]1C(=O)N(C)c2cnc(N(C)c3ccc(-c4nc5c(C(N)=O)cccc5[nH]4)cc3OC)nc2N1C1CCCC1
IC50 [1]: 2030 nM | Activity (Mus musculus [2]): Non-Toxic | inhibition (SW1990 [3]): Active | Activity (Mus musculus [4]): Active | inhibition [5]: Active | Activity (SW1990 [6]): 10.5% | inhibition [7]: 76.2% | inhibition (Mus musculus [8]): Active | Activity (Mus musculus [9]): Active | Activity (SW1990 [10]): Active | inhibition (SW1990 [11]): Active | Activity (Mus musculus [12]): Active | Activity (Mus musculus [13]): Active | Activity (Mus musculus [14]): Active | IC50 [15]: 1400 nM | Activity (Mus musculus [16]): Non-Toxic | Activity (Mus musculus [17]): Active | Activity (SW1990 [18]): Active | IC50 [19]: 381 nM | Activity (SW1990 [20]): Active | Activity (SW1990 [21]): Active | Activity (SW1990 [22]): 3.41% | Activity (SW1990 [23]): Active | Activity (Mus musculus [24]): Active

Cc1sc2c(c1C)C(c1ccc(Cl)cc1)=N[C@@H](CC(=O)OC(C)(C)C)c1nnc(C)n1-2
Activity (SW1990 [25]): Active | Activity (Mus musculus [26]): Non-Toxic | Activity (SW1990 [27]): Active | Activity (SW1990 [28]): Active | inhibition (SW1990 [29]): Active | Activity (SW1990 [30]): Active | Activity (Mus musculus [31]): Active | inhibition (SW1990 [32]): Active | Activity (SW1990 [33]): 19.33%
